One series is described as follows: Measurement of log P values by HPLC on reversed phase columns (methods [a] pH 2.3, [b] pH 2.7, [c] pH 7.8). The class given is physicochemical. As to conditions: HPLC on reversed phase column, method [b], pH 2.7. Summed up: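 Retention times were converted to log P by linear interpolation between linear alkan-2-one standards (3 to 16 carbons) of known log P. Eluents, each with 10% to 95% acetonitrile gradient: phosphoric acid 0.1% at pH 2.3 [a]; formic acid 0.1% at pH 2.7, LC-MS [b]; ammonium hydrogen carbonate 0.001 molar at pH 7.8, LC-MS [c].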
With `O=C(N[C@@H]1CC[C@H]1c1ccc(Cl)cc1C(F)(F)F)c1ncccc1Cl` (relative stereo) [Example 698], the logP is 3.84^[b].
With `O=C(N[C@@H]1CC[C@H]1c1ccc(Cl)cc1C(F)(F)F)c1ccccc1Cl` (relative stereo) [Example 697], the logP was 4.01^[b].
On the same count and under the same terms, the same measure for `O=C(NC1CCC1c1ccccc1C(F)(F)F)c1ncccc1Br` (centres unmarked) [Example 691]: 3.34^[b].
As to `O=C(N[C@@H]1CC[C@H]1c1ccc(Cl)cc1Cl)c1cccnc1Cl` (relative stereo) [Example 674], the logP is 3.16^[b].
Same read-out and setting: under `Cc1nc(C(F)(F)F)c(C(=O)N[C@@H]2CC[C@@H]2c2ccccc2C(F)(F)F)s1` (relative stereo) [Example 634] stands 3.34^[b]; under `O=C(N[C@@H]1CC[C@H]1c1ccc(Cl)cc1C(F)(F)F)c1c(F)cccc1F` (relative stereo) [Example 701], 3.75^[b].
Turning to `O=C(N[C@@H]1CC[C@H]1c1cccc(F)c1C(F)(F)F)c1ccc(Cl)cc1` (relative stereo) [Example 600], the logP is 3.88^[b].
Still for that read-out and setting: under `Cn1cc(C(=O)N[C@@H]2CC[C@H]2c2cccc(F)c2C(F)(F)F)c(C(F)F)n1` (relative stereo) [Example 644] stands 2.99^[b].

The series is the same for the next values; noted with them: HPLC on reversed phase column, method [c], pH 7.8.
As for `O=C(NC1CCC1c1ccccc1C(F)(F)F)c1ncccc1Br` (centres unmarked) [Example 691], the logP is 3.27^[c];.

Staying with this series, now noted: HPLC on reversed phase columns, method [b], pH 2.7.
For `Cc1oncc1C(=O)N[C@@H]1CCC[C@H]1c1ccc(F)c(F)c1` (relative stereo) [Example 102], the logP is 2.82^[b].
On the same count and under the same terms, under `COc1ccccc1C(=O)N[C@@H]1CCC[C@@H]1c1ccc(F)c(F)c1` (relative stereo) [Example 75] stands 3.39^[b].
The same measure, in the same setting: the same measure for `Cc1nn(C)cc1C(=O)NC1CC1c1ccc(F)cc1` (centres unmarked) [Example 16]: 2.13^[b]; for `Cc1nn(C)c(Cl)c1C(=O)NC1CC1c1ccccc1` (centres unmarked) [Example 9]: 2.12^[b].
The same measure, in the same setting: under `CC1=C(C(=O)N[C@@H]2CCC[C@@H]2c2ccc(F)c(F)c2)SCCO1` (relative stereo) [Example 79] stands 3.15^[b]; under `Cc1ncc(C(=O)N[C@@H]2CCC[C@H]2c2ccc(F)c(F)c2)s1` (relative stereo) [Example 108], 2.64^[b]; under `O=C(N[C@@H]1CCC[C@@H]1c1ccc(F)c(F)c1)c1ccccc1C(F)(F)F` (relative stereo) [Example 88], 3.50^[b].
Turning to `O=C(NC1CC1c1ccc(Cl)cc1)c1cccnc1Cl` (centres unmarked) [Example 34], the logP is 2.43^[b].
The same measure, in the same setting: under `Cc1nnsc1C(=O)N[C@@H]1CCC[C@H]1c1ccc(F)c(F)c1` (relative stereo) [Example 109] stands 2.92^[b]; under `O=C(NC1CC1c1ccccc1Cl)c1ccccc1Br` (centres unmarked) [Example 48], 3.19^[b].
Still for that read-out and setting: under `O=C(NC1CCC1c1c(Cl)cccc1Cl)c1c(F)cccc1F` (centres unmarked) [Example 727] stands 3.33^[b]; under `O=C(N[C@@H]1CCC[C@@H]1c1ccc(F)c(F)c1)c1c(Cl)ccnc1Cl` (relative stereo) [Example 120], 3.02^[b]; under `Cc1ncc(C(=O)N[C@@H]2CCC[C@@H]2c2ccc(F)c(F)c2)s1` (relative stereo) [Example 71], 2.57^[b].
Still for that read-out and setting: under `N#Cc1ncccc1C(=O)N[C@@H]1CCC[C@@H]1c1ccc(F)c(F)c1` (relative stereo) [Example 74] stands 3.21^[b]; under `O=C(N[C@@H]1C[C@H]1c1ccccc1Cl)c1ccccc1C(F)(F)F` (relative stereo) [Example 51], 3.31^[b].
Consider `Cn1cccc1C(=O)N[C@@H]1CCC[C@@H]1c1ccc(F)c(F)c1` (relative stereo) [Example 111], for which the logP was 3.13^[b].

The same series, now with this note: HPLC on reversed phase columns, method [c], pH 7.8.
On to `O=C(NC1CC1c1ccc(Cl)cc1)c1cccnc1Cl` (centres unmarked) [Example 34], for which the logP is 2.39^[c];.

The same series, now with this note: HPLC reversed phase, method [b] (pH 2.7).
Take `O=C(NC1CCC1c1c(F)cccc1F)c1ccccc1` (centres unmarked) [Example 514]: the logP was 2.75^[b].
Still for that read-out and setting: under `O=C(N[C@@H]1CC[C@H]1c1cccc(F)c1C(F)(F)F)c1ccccc1C(F)(F)F` (relative stereo) [Example 588] stands 3.63^[b]; under `Cc1nc(C(F)(F)F)c(C(=O)N[C@@H]2CC[C@H]2c2ccc(F)cc2C(F)(F)F)s1` (relative stereo) [Example 530], 3.60^[b].
On the same count and under the same terms, under `Cc1nn(C)cc1C(=O)NC1CCCC1c1ccc(Cl)cc1` (centres unmarked) [Example 277] stands 2.31^[b].
The same measure, in the same setting: under `O=C(N[C@@H]1CC[C@H]1c1ccccc1C(F)(F)F)c1c(F)cccc1F` (relative stereo) [Example 267] stands 3.24^[b]; under `O=C(NC1CCCCC1c1ccc(Cl)cc1Cl)c1ccccc1Cl` (centres unmarked) [Example 409], 4.47^[b].
`O=C(NC1CCCCC1c1ccccc1Br)c1ccccc1C(F)(F)F` (centres unmarked) [Example 407]: the logP is 4.10^[b].
Same read-out and setting: the same measure for `O=C(NC1CCC1c1ccc(Cl)cc1Cl)c1ccccc1C(F)(F)F` (centres unmarked) [Example 474]: 4.02^[b]; for `CC(C)Oc1ccc([C@H]2CCC[C@H]2NC(=O)c2nccnc2C(F)(F)F)cc1` (relative stereo) [Example 340]: 3.62^[b]; for `O=C(NC1CCCCC1c1ccccc1Br)c1ccccc1Cl` (centres unmarked) [Example 405]: 3.97^[b].
The same measure, in the same setting: the same measure for `Cc1nn(C)cc1C(=O)NC1CCCC1c1ccccc1C(F)(F)F` (centres unmarked) [Example 310]: 2.47^[b]; for `O=C(NC1CC1c1ccc(Cl)cc1)c1ccccc1C(F)F` (centres unmarked) [Example 459]: 2.90^[b].
As for `O=C(NC1CCCC1c1ccc(Cl)cc1)c1c(F)cccc1F` (centres unmarked) [Example 282], the logP is 3.28^[b].
Same read-out and setting: under `O=C(NC1CCCC1c1ccc(Cl)cc1)c1cccnc1Cl` (centres unmarked) [Example 281] stands 2.81^[b]; under `O=C(NC1CC1c1ccc(Cl)cc1)c1ccccc1F` (centres unmarked) [Example 422], 3.12^[b].
The same measure, in the same setting: the same measure for `Cc1nc(C)c(C(=O)NC2CCCCC2c2c(F)cccc2F)s1` (centres unmarked) [Example 394]: 3.16^[b]; for `O=C(NC1CCCC1c1ccc(Cl)cc1Cl)c1ccccc1Cl` (centres unmarked) [Example 351]: 3.87^[b]; for `O=C(N[C@@H]1C[C@@H]1c1ccc(Cl)cc1Cl)c1cccnc1C(F)(F)F` (relative stereo) [Example 565]: 2.85^[b].
On the same count and under the same terms, under `O=C(NC1CCC1c1ccc(Cl)cc1Cl)c1cccc(Cl)c1` (centres unmarked) [Example 457] stands 3.87^[b]; under `O=C(NC1CCCC1c1ccccc1C(F)(F)F)c1cccnc1Cl` (centres unmarked) [Example 301], 2.90^[b]; under `Cc1nc(C)c(C(=O)NC2CCCCC2c2ccccc2Br)s1` (centres unmarked) [Example 401], 3.35^[b].
As to `O=C(NC1CCC1c1ccccc1Cl)c1ccccc1` (centres unmarked) [Example 449], the logP was 2.81^[b].
On the same count and under the same terms, under `Cc1nn(C)cc1C(=O)NC1CCCCC1c1c(F)cccc1F` (centres unmarked) [Example 393] stands 2.51^[b]; under `O=C(N[C@@H]1CC[C@H]1c1ccccc1Cl)c1cccnc1` (relative stereo) [Example 539], 2.06^[b]; under `O=C(NC1CCCC1c1ccccc1Br)c1c(F)cccc1F` (centres unmarked) [Example 347], 3.35^[b].
Still for that read-out and setting: the same measure for `O=C(NC1CCCC1c1ccccc1C(F)(F)F)c1ccccc1Cl` (centres unmarked) [Example 300]: 3.56^[b].

The same series, now with this note: HPLC reversed phase, method [c] pH 7.8.
With `CC(C)Oc1ccc([C@H]2CCC[C@H]2NC(=O)c2nccnc2C(F)(F)F)cc1` (relative stereo) [Example 340], the logP is 3.55^[c];.
Still for that read-out and setting: the same measure for `O=C(NC1CC1c1ccc(Cl)cc1)c1ccccc1C(F)F` (centres unmarked) [Example 459]: 2.88^[c];; for `O=C(NC1CC1c1ccc(Cl)cc1)c1ccccc1F` (centres unmarked) [Example 422]: 3.07^[c];.

The series is the same for the next values; noted with them: method [b], HPLC reversed phase, pH 2.7.
For the compound `Cn1cc(C(=O)NC2CCCCC2c2ccccc2)c(C(F)F)n1` (centres unmarked) [Example 185], the logP was 2.76^[b].
Same read-out and setting: under `Cn1cc(C(=O)N[C@@H]2CCC[C@H]2c2ccc(F)c(F)c2)c(=O)[nH]1` (relative stereo) [Example 135] stands 2.18^[b]; under `Cn1nc(C(F)F)c(C(=O)NC2CCCCC2c2ccccc2)c1Cl` (centres unmarked) [Example 183], 3.51^[b]; under `O=C(NC1CC1c1ccccc1C(F)(F)F)c1ccccc1I` (centres unmarked) [Example 232], 3.31^[b].
The same measure, in the same setting: the same measure for `Cn1nc(C(F)F)c(C(=O)N(C2CC2)C2CCCC2c2ccccc2Cl)c1F` (centres unmarked) [Example 167]: 4.31^[b]; for `O=C(NC1CC1c1ccc(Cl)cc1)c1sccc1Cl` (centres unmarked) [Compound 203]: 3.51^[b]; for `Cn1nc(C(F)(F)F)c(C(=O)NC2CC2c2ccccc2)c1F` (centres unmarked) [Example 178]: 2.63^[b].
On the same count and under the same terms, the same measure for `Cc1nc(C(F)F)c(C(=O)N(C2CC2)C2CCCC2c2ccccc2Cl)s1` (centres unmarked) [Example 174]: 4.51^[b]; for `Cn1cc(C(=O)N(C2CC2)C2CCCCC2c2ccccc2)c(C(F)F)n1` (centres unmarked) [Example 143]: 3.55^[b].

The same series, now with this note: method [c], HPLC reversed phase, pH 7.8.
Consider `O=C(NC1CC1c1ccc(Cl)cc1)c1sccc1Cl` (centres unmarked) [Compound 203], for which the logP is 3.45^[c];.

Staying with this series, now noted: reversed phase HPLC columns, HPLC-MS, method letter not given; read-out: log P.
For `O=C(NC1CCC1c1ccccc1Cl)c1ncccc1Cl` (stereo not drawn) [Compound 238, trans-3-chloro-N-[2-(2-chlorophenyl)cyclobutyl]pyridine-2-carboxamide], the chromatographic logP was determined as 3.06.

Still in this series, the particulars now being: reversed phase HPLC columns, pH 2.7, HPLC on reversed phase columns, method [b] (pH 2.7); read-out: logP.
`O=C(N[C@@H]1C[C@]1(F)c1ccc(Cl)cc1)c1ccccc1I` [Example 753]: the chromatographic logP is 2.98.
Turning to `Cc1nc(C(F)(F)F)c(C(=O)N[C@@H]2CC[C@@H]2c2c(Cl)cccc2Cl)s1` [Example 740], the chromatographic logP worked out at 3.6.

Staying with this series, now noted: reversed phase HPLC columns, pH 2.7, HPLC reversed phase, method [b] (pH 2.7); read-out: logP.
With `O=C(N[C@@H]1CC[C@H]1c1ccc(Cl)cc1Cl)c1cccc(Cl)c1` [Example 454], the chromatographic logP stood at 4.4.
Still for that read-out and setting: the same measure for `O=C(N[C@@H]1CCC[C@@H]1c1ccccc1C(F)(F)F)c1cccnc1C(F)(F)F` [Example 290]: 3.29.

Staying with this series, now noted: reversed phase HPLC columns, pH 2.7, method [b], HPLC reversed phase, pH 2.7; read-out: logP.
Take `O=C(NC1CCC1c1ccccc1Cl)c1ncccc1Cl` (stereo not drawn) [Compound 238, trans-3-chloro-N-[2-(2-chlorophenyl)cyclobutyl]pyridine-2-carboxamide]: the chromatographic logP is 3.06.

Values taken from patent US20160075653A1, “NEMATICIDAL N-(PHENYLCYCLOALKYL)CARBOXAMIDES AND N-(PHENYLCYCLOALKYL)THIOCARBOXAMIDES” (BAYER CROPSCIENCE AKTIENGESELLSCHAFT, priority 2013, published 2016).
